Test results reported in patent publication US20250281629A1, “COMPOSITIONS AND METHODS FOR ANTI-PHOSPHOCHOLINE ACTIVE IMMUNOTHERAPY” (Duke University, priority 2022, published 2025).
Where no end group is shown, it is not given here. C11H22NO6P = phosphorylcholine group attached via 2-methacryloyloxyethyl phosphorylcholine

Assays:
[1] = Zeta potential of nanofibers; format: physicochemical; conditions: 1 mM conjugate coassembled with 1 mM Q11; 0.2 mM in 1×PBS, 25° C.
Method: Zeta Potential. Nanofibers were diluted to 0.2 mM in 1×PBS and zeta potential measurements were conducted at 25° C. using an Anton Paar Litesizer 500.

C57BL/6 mice = assay: Chronic DSS-induced colitis, prophylactic immunization; format: in vivo, mouse
From the text: DSS-Induced Colitis and Assessment. Before inducing colitis, mice from each treatment group were divided amongst the cages to avoid any cage-related disease effects. This excluded the PBS without DSS (healthy) control mice which remained in their own cage and received normal drinking water for the duration of the experiment. Colitis was induced by administering 2% (w/v) colitis-grade dextran sodium sulfate (MP Biomedicals, 160110) in drinking water. For determination of prophylactic immunization efficacy, mice were immunized i.p. 3 times at days −35, −21 and −7 before colitis induction on Day 0. Chronic colitis was induced via DSS-containing water given for 5 days followed by 5 days of normal drinking water for 3 cycles, resulting in a 30-day model. A shorter, acute DSS-induced colitis model consisting of one cycle of colitis was achieved by giving 5 days of 2% DSS in water followed by 5 days of normal drinking water for a total of 10 days and was also examined in a preventative immunization scenario. Mice were weighed daily and evaluated for the IACUC approved humane endpoint of >30% weight loss as DSS mice regain weight quickly after DSS administration ceases. They were also monitored for occult blood with Hemoccult tape and developer (Beckman Coulter, 63202) and fecal consistency. Disease activity index (DAI) scores were a combination of weight loss (≥100%=0, 90-99%=1, 80-89%=2, […]), occult blood (no blood=0, blood=3), and fecal consistency (hard=0, soft=1, softer=2, runny=3), with a possible daily maximum score of 9. […] At the experimental endpoint, mice were euthanized, and colon lengths were measured from the base of the cecum to the rectum using digital calibrators. To determine immunization efficacy in a therapeutic colitis setting, colitis was first induced by administering one cycle of colitis achieved by 5 days of 2% DSS in water followed by 5 days of normal drinking water for a total of 10 days. Mice were monitored daily as described above until they on average regained their original body weight on day 20. At this point, i.p. immunizations were initiated and given three times over a 4-week period on days 20, 32, and 45, and colitis monitoring was reduced to twice weekly. An additional cycle of colitis was then induced on day 51 via 5 days of 2% DSS in water followed by 5 days of normal drinking water for a total of 10 days with daily monitoring. The entire therapeutic model ended on day 60, and colon lengths were measured as described above.
FITC-dextran Measurements. On the last day of the chronic and therapeutic DSS colitis models, mice were fasted overnight and then given 0.6 mg/g 3-5 KDa m.w. FITC-dextran (Sigma, FD4) in 100 μL of sterile 1×PBS via oral gavage. Serum samples were collected 3 h later at the experimental endpoint. To determine the intestinal barrier permeability, serum samples were diluted in 1×PBS and FITC fluorescence intensity was measured at an excitation of 488 nm and emission of 520 nm. Values were converted to pg/mL via a standard curve of FITC-dextran in serum.
Spleen Bacteria Measurements. At the conclusion of the DSS experiments, spleens were harvested and weighed followed by homogenization in 500 μL of 0.1% Triton X-100 in sterile 1×PBS using a Tissue Tearer handheld homogenizer (Biospec Products). 25 μL of homogenate solution was then spread on each quarter of culture plates consisting of tryptic soy broth No. 2 (Sigma, 51228) and Difco agar, granulated (BD Biosciences, 214530) in dilutions from 100 to 103. After a 48 hr incubation at 37° C., colony forming units (CFUs) were counted and converted to CFU/g of spleen tissue via the equations: […]
Colon IL-10 Quantification. At the conclusion of some DSS experiments, one half of the harvested mouse colons were flushed with PBS to remove fecal matter and flash frozen in liquid nitrogen. […]

B1a cells (CD19^+CD5^+) = assay: Colon B cell populations by flow cytometry: B1a cells; format: in vivo, mouse; conditions: vs other DSS-administered mice
Method: (§1) Determination of Colon B cell Populations. Small colon samples collected from either after immunization only or after colitis experiments were collected at experimental endpoints. Colon samples were flushed with PBS and then digested in a solution containing 200 U/mL collagenase from Clostridium histolyticum (Sigma, C5138) and 0.1 mg/mL DNase I (Sigma, 10104159001) in 1×PBS. Digestion occurred at 37° C. while shaking for a total of 30 minutes. The solutions were then filtered to isolate cells, spun down, and transferred into ice cold flow buffer (2% heat-inactivated FBS in 1×PBS). The cells were blocked with mouse BD Fc Block (Clone: 2.4G2) (BD Biosciences, 553142) for 30 min on ice and then washed in flow buffer and stained with antibodies against CD5-APC (Clone: 53-7.3) (BioLegend, 100626), CD19-APC/Cy7 (Clone: 6D5) (BioLegend, 115530), B220-PE (Clone: RA3-6B2) (BioLegend, […]), and CD138-PE/Cy7 (Clone: 281-2) (BioLegend, […]) in flow buffer for 30 min on ice. Cells were washed and DAPI was added. Flow cytometry was then conducted on a BD FACSCanto II cytometer and the results were analyzed using FlowJo software.

[2] = tested on: plasma cells (B220^+CD138^+); assay: Colon B cell populations by flow cytometry: plasma cells; format: in vivo, mouse; conditions: vs disease controls
Method: as §1

[3] = 2% DSS, 3 cycles, 30 days, vs disease controls

In the case of “C11H22NO6P-CSGSG-QQKFQFQFEQQ-NH2 (C(C11H22NO6P)SGSGQQKFQFQFEQQ-NH2) [PC-Q11, phosphodiester PC-Q11]”, the “zeta potential (surface charge) of nanofibers” value [1] is reported as “neutrally charged”.

In the case of “(C11H22NO6P)n-CCCCSGSG-QQKFQFQFEQQ-NH2 (CCCCSGSGQQKFQFQFEQQ-NH2; not fully specified; cysteine pairing not given here; also: phosphorylcholine groups (C11H22NO6P) n=1-4, attachment not placed) [PCM-Q11, linear multi-PC conjugate]”, the “disease activity index (DAI) scores / disease severity” value (C57BL/6 mice; [3]) is reported as “improved disease severity”, the weight loss (C57BL/6 mice; [3]) is reported as “reduced weight loss” and the “serum anti-PC IgG subclass responses at week 5” value (C57BL/6 mice; before DSS administration) is reported as “skewed the subclass response towards non-inflammatory IgG1 with IgG2b also present”. For the same substance, the “IL-10 levels in colon homogenates” value (C57BL/6 mice; chronic colitis experiment 1) was “highest levels that were not significantly different from healthy controls”, the “colon length (colon shortening)” value (C57BL/6 mice; day 30, vs disease controls) was “diminished colon shortening” and the “serum anti-PC IgM” value (C57BL/6 mice; i.p. days −35, −21, −7, without CpG) was “did not induce anti-PC IgM within detection levels”. For the same substance, the “colonic B1a cells after chronic DSS colitis” value (B1a cells (CD19^+CD5^+)) was “decrease in B1a cells” and the “colon plasma cells after chronic DSS colitis” value [2] was “more plasma cells than disease controls”.
